Data: patent publication US20240307374A1, “FORMULATION OF FURIN INHIBITOR FOR INHALATION” (BP ASSET V, INC., priority 2021, published 2024)
“Also recorded” adds a separate entry of the source.

Legend:
[1] = Phase I PK study, intranasal, cotton rats (plasma, lungs, BAL); format: in vivo, Sigmodon hispidus cotton rats
From the text: (§1) Fifty (50) inbred, 6-8 week old, Sigmodon hispidus female and male cotton rats (source: Sigmovir Biosystems, Inc., Rockville MD) were maintained and handled under veterinary supervision in accordance with the National Institutes of Health guidelines and Sigmovir Institutional Animal Care and Use Committee's approved animal study protocol (IACUC Protocol #15). Fifteen animals were used in Phase I and 35 animals in Phase II studies. Each group of 5 animals included 3 females (the first three animals in each group) and 2 males (the last 2 animals in each group). Groups of even number of animals included equal number of males and females. Cotton rats were housed in clear polycarbonate cages and provided with standard rodent chow (Harlan #7004) and tap water ad lib.
To prepare excipient solution, 125 mg of citric acid anhydrous and 972 mg of lactose anhydrous were dissolved in water by adding 6 ml to the powder. The solution was vortexed. Final volume was adjusted to 10 mL with water for final concentration of 65 mM citric acid anhydrous and 284 mM lactose anhydrous. The solution was stored at 4±2° C.
(§2) Step 1. Divided 15 young S. hispidus (6-8 week old) between 3 groups (3 females and 2 males per group). Eartaged, weighed, and eyebleed all animals under isoflurane anesthesia for serum and plasma. Treated all animals intranasally with the solution indicated in Table 8-1 below, 5 0 μl/100 g animal (administered in both nostrils).
(§3) Step 2. Measured weight, collected clinical observations (e.g., changes in appearance, movement, posture), and repeated treatments on all animals as in Step 1.
Step 3. Measured weight, collected clinical observations (e.g., changes in appearance, movement, posture), and repeated treatments on all animals as in Step 1.
Step 4. Measured weight, collected clinical observations (e.g., changes in appearance, movement, posture), and repeated treatments on all animals as in Step 1.
Step 5. Measured weight, collected clinical observations, and repeated treatment on all animals as described in Step 1. After 1 h Step 6, terminally bled one animal from each group, followed by the necropsy with gross pathology examination and collection of BAL (right lung) and lung samples (left lung) for the PK assessment. After 3 h Step 7, terminally bled the second animal from each group, followed by the necropsy with gross pathology examination and collection of BAL and lung samples for the PK assessment.
Step 8. Terminally bled the third animal from each group, followed by the necropsy with gross pathology examination and collection of BAL and lung samples for the PK assessment.
Step 9. […]
Step 10. Measured weight and collected clinical observations on the remaining animals. […]

[2] = Tolerability (weight, clinical observations, gross pathology) in the Phase I study; format: in vivo, Sigmodon hispidus cotton rats
From the text: as §1, §2, §3
Step 5. Measured weight, collected clinical observations, and repeated treatment on all animals as described in Step 1. […]

[3] = XRPD before and after drying (form stability on drying); format: physicochemical; details: wet cake, vacuum drying at RT for about 3 hours

SMILES	dose dependence of concentration in plasma and lungs ([1]; 0.1, 0.3, 1 mg/kg, highest level with 1 mg/kg 1 hr post-treatment)	persistence of level in plasma and lungs ([1]; after last intranasal dose, depending on the dose)	detection in BALF ([1]; intranasal QD for 5 days, 0.1, 0.3, 1 mg/kg per day)	detection in plasma and lungs ([1]; intranasal QD for 5 days, 0.1, 0.3, 1 mg/kg per day, 1-24 h after last dose)	noticeable effect (blood clotting) ([2]; highest dose 1 mg/kg/day, one animal, terminal bleed)	tolerability ([2]; intranasal QD for 5 consecutive days, 0.1, 0.3, 1 mg/kg per day)	form change on drying (XRPD) [3]
CC(=O)NCC1CCN(Cc2cc(Oc3ccc(N4CCN(CCC(=O)O)CC4)nc3)nc(-c3cc(Cl)cc(Cl)c3)c2)CC1 [Compound (I)]	dose-dependent effect	remained elevated for several hours	much less so in BALF	detectable in the plasma and lungs	apparent increase in blood clotting time in one of the animals	well tolerated	–
CC(=O)NCC1CCN(Cc2cc(Oc3ccc(N4CCN(CCC(=O)O)CC4)nc3)nc(-c3cc(Cl)cc(Cl)c3)c2)CC1 [Freeform Type C]	–	–	–	–	–	–	transformed to freeform Type A; also recorded: Transferred to freeform Type A after drying at RT
